Test results from ChEMBL document CHEMBL1821574, “Structure-activity relationships of 4-position diamine quinoline methanols as intermittent preventative treatment (IPT) against Plasmodium falciparum” (J Med Chem, 2011).
Converted amounts (≈) assume the structure as drawn.

Experiments:
[1] = test system: Plasmodium falciparum; test: Antimalarial activity against chloroquine, mefloquine and pyrimethamine-resistant Plasmodium falciparum TM91C235 assessed as inhibition of [3H]hypoxanthine incorporation by liquid scintillation spectrometry; type: functional
[2] = test system: Plasmodium falciparum; test: Antimalarial activity against chloroquine, mefloquine and pyrimethamine-resistant Plasmodium falciparum TM90C2A assessed as inhibition of [3H]hypoxanthine incorporation by liquid scintillation spectrometry; type: functional
[3] = test system: Plasmodium falciparum; test: Antimalarial activity against chloroquine-sensitive and mefloquine-resistant Plasmodium falciparum D6 by SYBR Green I-based fluorescence assay; type: functional
[4] = test system: Plasmodium falciparum; test: Antimalarial activity against chloroquine-resistant and mefloquine-sensitive Plasmodium falciparum W2 assessed as inhibition of [3H]hypoxanthine incorporation by liquid scintillation spectrometry; type: functional
[5] = test system: Plasmodium falciparum; test: Antimalarial activity against chloroquine-sensitive and mefloquine-resistant Plasmodium falciparum D6 assessed as inhibition of [3H]hypoxanthine incorporation by liquid scintillation spectrometry; type: functional
[6] = test system: Plasmodium falciparum; test: Antimalarial activity against chloroquine, mefloquine and pyrimethamine-resistant Plasmodium falciparum TM91C235 by SYBR Green I-based fluorescence assay; type: functional
[7] = Apparent permeability from apical to basolateral side of dog MDCK cells at 5 uM after 2 hrs by LC/MS/MS analysis; type: ADME, cell-based, Canis lupus familiaris

| SMILES | IC90 [1] | IC90 [2] | IC90 [3] | IC90 [4] | IC90 [5] | IC90 [6] | Papp A→B at 2 h, 5 µM [7] |
| --- | --- | --- | --- | --- | --- | --- | --- |
| OC(CNCCNCc1ccncc1)c1cc(C(F)(F)F)nc2c(C(F)(F)F)cccc12 (stereo unspecified) | > 0.5 µg/mL | > 0.5 µg/mL | 0.38 µg/mL (≈ 0.829 µM) | 0.47 µg/mL (≈ 1.03 µM) | 0.38 µg/mL (≈ 0.829 µM) | > 0.5 µg/mL |  |
| OC(CNCCN1CCCC1)c1cc(C(F)(F)F)nc2c(C(F)(F)F)cccc12 (stereo unspecified) | 0.556 µg/mL (≈ 1.32 µM) | 0.835 µg/mL (≈ 1.98 µM) |  | 0.109 µg/mL (≈ 0.259 µM) | 0.311 µg/mL (≈ 0.738 µM) |  |  |
| CC1CCN(CC(C)(C)NCC(O)c2cc(C(F)(F)F)nc3c(C(F)(F)F)cccc23)CC1 (stereo unspecified) | 0.061 µg/mL (≈ 0.128 µM) | 0.066 µg/mL (≈ 0.138 µM) | 0.017 µg/mL (≈ 0.0356 µM) | 0.007 µg/mL (≈ 0.0147 µM) | 0.024 µg/mL (≈ 0.0503 µM) | 0.034 µg/mL (≈ 0.0712 µM) | 44.2 ×10⁻⁶ cm/s |
| CC(CCN1CCOCC1)NCC(O)c1cc(C(F)(F)F)nc2c(C(F)(F)F)cccc12 (stereo unspecified) | 0.055 µg/mL (≈ 0.118 µM) | 0.095 µg/mL (≈ 0.204 µM) |  | 0.011 µg/mL (≈ 0.0236 µM) | 0.036 µg/mL (≈ 0.0773 µM) |  |  |
| OC(CNCC1CCNC1)c1cc(C(F)(F)F)nc2c(C(F)(F)F)cccc12 (stereo unspecified) | 4.27 µg/mL (≈ 10.5 µM) | 4.37 µg/mL (≈ 10.7 µM) |  | 2.04 µg/mL (≈ 5.01 µM) | 3.1 µg/mL (≈ 7.61 µM) |  |  |
| OC(CNC[C@]12CCC[C@H]1CNC2)c1cc(C(F)(F)F)nc2c(C(F)(F)F)cccc12 (stereo partly specified) | 0.419 µg/mL (≈ 0.936 µM) | 0.429 µg/mL (≈ 0.959 µM) |  | 0.852 µg/mL (≈ 1.9 µM) | 0.159 µg/mL (≈ 0.355 µM) |  |  |
| OC(CNC[C@@]12CCC[C@@H]1CNC2)c1cc(C(F)(F)F)nc2c(C(F)(F)F)cccc12 (stereo partly specified) | 0.433 µg/mL (≈ 0.968 µM) | 0.358 µg/mL (≈ 0.8 µM) |  | 0.885 µg/mL (≈ 1.98 µM) | 0.165 µg/mL (≈ 0.369 µM) |  |  |
| CC(CN1CCCC1)NCC(O)c1cc(C(F)(F)F)nc2c(C(F)(F)F)cccc12 (stereo unspecified) | 0.079 µg/mL (≈ 0.181 µM) | 0.071 µg/mL (≈ 0.163 µM) | 0.008 µg/mL (≈ 0.0184 µM) | 0.011 µg/mL (≈ 0.0253 µM) | 0.039 µg/mL (≈ 0.0896 µM) | 0.055 µg/mL (≈ 0.126 µM) | 33.1 ×10⁻⁶ cm/s |
| CC1CC(C)CN(CCNCC(O)c2cc(C(F)(F)F)nc3c(C(F)(F)F)cccc23)C1 (stereo unspecified) | 0.01 µg/mL (≈ 0.0216 µM) | 0.011 µg/mL (≈ 0.0237 µM) | 0.01 µg/mL (≈ 0.0216 µM) | < 0.001 µg/mL | 0.005 µg/mL (≈ 0.0108 µM) | 0.056 µg/mL (≈ 0.121 µM) | 32.7 ×10⁻⁶ cm/s |
| CN1CCCC(C(NCC(O)c2cc(C(F)(F)F)nc3c(C(F)(F)F)cccc23)C2CCCN(C)C2)C1 (stereo unspecified) | 0.903 µg/mL (≈ 1.7 µM) | 0.983 µg/mL (≈ 1.85 µM) |  | 0.28 µg/mL (≈ 0.526 µM) | 0.746 µg/mL (≈ 1.4 µM) |  |  |
| Cc1ccc(S(=O)(=O)N(CCN2CCCCC2)CC(O)c2cc(C(F)(F)F)nc3c(C(F)(F)F)cccc23)cc1 (stereo unspecified) |  |  | 0.071 µg/mL (≈ 0.12 µM) |  |  | 0.214 µg/mL (≈ 0.363 µM) | 2.5 ×10⁻⁶ cm/s |
| OC(CNCCN1CC2CCC1C2)c1cc(C(F)(F)F)nc2c(C(F)(F)F)cccc12 (stereo unspecified) |  |  | 0.844 µg/mL (≈ 1.89 µM) |  |  | 0.972 µg/mL (≈ 2.17 µM) | 14.2 ×10⁻⁶ cm/s |
| CC(CN1CC2CCC1C2)NCC(O)c1cc(C(F)(F)F)nc2c(C(F)(F)F)cccc12 (stereo unspecified) |  |  | 0.029 µg/mL (≈ 0.0628 µM) |  |  | 0.051 µg/mL (≈ 0.111 µM) | 18.8 ×10⁻⁶ cm/s |
| CC(C)(CN1CC2CCC1C2)NCC(O)c1cc(C(F)(F)F)nc2c(C(F)(F)F)cccc12 (stereo unspecified) |  |  | 0.093 µg/mL (≈ 0.196 µM) |  |  | 0.16 µg/mL (≈ 0.337 µM) | 25.1 ×10⁻⁶ cm/s |
| CN(CCN(C)CC(O)c1cc(C(F)(F)F)nc2c(C(F)(F)F)cccc12)CC(O)c1cc(C(F)(F)F)nc2c(C(F)(F)F)cccc12 (stereo unspecified) |  |  | 0.329 µg/mL (≈ 0.468 µM) |  |  | 0.375 µg/mL (≈ 0.534 µM) |  |
| CNCCN(CC(O)c1cc(C(F)(F)F)nc2c(C(F)(F)F)cccc12)CC(O)c1cc(C(F)(F)F)nc2c(C(F)(F)F)cccc12 (stereo unspecified) |  |  | 0.022 µg/mL (≈ 0.032 µM) |  |  | 0.03 µg/mL (≈ 0.0436 µM) | 0.3 ×10⁻⁶ cm/s |
| CN(C)CCN(CC(O)c1cc(C(F)(F)F)nc2c(C(F)(F)F)cccc12)CC(O)c1cc(C(F)(F)F)nc2c(C(F)(F)F)cccc12 (stereo unspecified) |  |  | > 0.5 µg/mL |  |  | > 0.5 µg/mL |  |
| CN(CCN)CC(O)c1cc(C(F)(F)F)nc2c(C(F)(F)F)cccc12 (stereo unspecified) |  |  | 0.344 µg/mL (≈ 0.902 µM) |  |  | 0.695 µg/mL (≈ 1.82 µM) | 4.9 ×10⁻⁶ cm/s |
| CNCCN(C)CC(O)c1cc(C(F)(F)F)nc2c(C(F)(F)F)cccc12 (stereo unspecified) |  |  | 0.432 µg/mL (≈ 1.09 µM) |  |  | 0.755 µg/mL (≈ 1.91 µM) | 5.66 ×10⁻⁶ cm/s |
| NCCN(Cc1ccccc1)CC(O)c1cc(C(F)(F)F)nc2c(C(F)(F)F)cccc12 (stereo unspecified) |  |  | 0.329 µg/mL (≈ 0.719 µM) |  |  | 0.289 µg/mL (≈ 0.632 µM) | 9.06 ×10⁻⁶ cm/s |
| CC(C)N(CCN)CC(O)c1cc(C(F)(F)F)nc2c(C(F)(F)F)cccc12 (stereo unspecified) |  |  | 0.439 µg/mL (≈ 1.07 µM) |  |  | 0.627 µg/mL (≈ 1.53 µM) |  |
| CN(C)CC(C)(C)NCC(O)c1cc(C(F)(F)F)nc2c(C(F)(F)F)cccc12 (stereo unspecified) | 0.142 µg/mL (≈ 0.335 µM) | 0.165 µg/mL (≈ 0.39 µM) |  | 0.03 µg/mL (≈ 0.0709 µM) | 0.098 µg/mL (≈ 0.231 µM) |  |  |
| CC(CNC(C)(C)C)NCC(O)c1cc(C(F)(F)F)nc2c(C(F)(F)F)cccc12 (stereo unspecified) |  |  | 0.015 µg/mL (≈ 0.0343 µM) |  |  | 0.041 µg/mL (≈ 0.0937 µM) | 13.1 ×10⁻⁶ cm/s |
| CC(CNC1CCCCC1)NCC(O)c1cc(C(F)(F)F)nc2c(C(F)(F)F)cccc12 (stereo unspecified) |  |  | 0.026 µg/mL (≈ 0.0561 µM) |  |  | 0.082 µg/mL (≈ 0.177 µM) | 9.6 ×10⁻⁶ cm/s |
